“And” between values parts separate entries of the source, which are not always exact repeats. Equal entries are not always repeated. Where no end group is shown, it is not given here. TAMRA = carboxytetramethyl rhodamine on alpha-amino group of Met1
What was measured:
rat GLP-1 receptor = target: T1, rat GLP-1 receptor (Rattus norvegicus, UniProt P32301); experiment: cAMP accumulation, rat GLP-1 receptor; assay type: cell-based; details: rat GLP-1R-expressing HEK293 cells; read-out: EC50, intracellular cAMP accumulation
T1 construct: expressed in transfected cells; host or cells: COS-7 (methods)
T1 sequence (P32301 22-463): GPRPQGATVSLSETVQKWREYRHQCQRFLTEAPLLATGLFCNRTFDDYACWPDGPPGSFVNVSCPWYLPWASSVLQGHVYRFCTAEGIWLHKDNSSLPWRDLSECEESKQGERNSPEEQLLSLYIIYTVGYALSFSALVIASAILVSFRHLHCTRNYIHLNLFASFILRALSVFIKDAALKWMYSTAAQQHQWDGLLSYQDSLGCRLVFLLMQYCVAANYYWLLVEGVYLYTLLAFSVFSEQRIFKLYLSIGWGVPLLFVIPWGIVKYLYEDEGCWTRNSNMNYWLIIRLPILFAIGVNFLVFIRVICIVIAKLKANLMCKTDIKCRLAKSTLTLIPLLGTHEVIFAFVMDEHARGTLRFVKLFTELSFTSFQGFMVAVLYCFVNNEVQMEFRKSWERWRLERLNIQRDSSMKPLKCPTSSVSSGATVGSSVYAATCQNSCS
Protocol: (§1) Transient transfection of COS-7 cells was performed using calcium phosphate precipitation method. Briefly, a total of 10 ug of receptor DNA was diluted in TE-buffer ([…] Tris-HCl and 1 mM EDTA, pH 7.5) to a total of 105 ul, to which 15 ul of 2 M CaCl2) was added. The DNA-calcium co-precipitation was gently and slowly added to 120 ul 2× HEPES-buffered saline (HBS), and the transfection mixture was incubated at room temperature for 45 min. The total transfection mixture was added to the cells and incubated for 5 hours at 37° C. and 10% CO2, with the addition of 75 ul chloroquine to the growth medium. After 5 hours, the transfection medium was removed and replaced with regular growth medium. The cells were used in experiment 40-48 h after termination of the transfection procedure.
(§2) For the cAMP assay, the COS-7 cells were seeded into 96-well plates (35.000 cells/well) and washed with HBS prior to incubation with 100 ul […] isobutylmethylzanthine (IBMX) for 30 min at 37° C. […] After incubation, the medium was removed, and cells were treated according to the protocol ‘three reagent addition’ procedure for the HitHunter cAMP XS+Assay by DiscoverX, USA.

C57BL/6J mice [1] = experiment: Food intake of fasted C57BL/6J mice after i.p. injection (Example 8); assay type: in vivo, mouse; details: 200 nmol/kg i.p.
Protocol: Female C57BL/6J mice were purchased from Charles Rivers. […] The animals were housed in individual cages, with access to food and water, and food intake was measured 1 and 2 hours after injection.

[2] = Plasma and CSF concentrations after injection into vena cava (RIA GLP-1 assay); assay type: in vivo; details: rat
Protocol: Male Sprague Dawley rats were purchased from Charles Rivers. Animals were anesthetized by hypnorm/dormicum, and restrained in a stereotactic instrument. […] Blood samples were collected prior to the injection of test compounds and straight after CSF aspiration.
The assay buffer was 100 mM Tris buffer with pH 8.5 containing 1% (wt/vol) human serum albumin, 0.01 mM valine-pyrrolidide and 500 KIE aprotinin (final concentrations). […] Plasma and CSF concentrations were measured after dilution in assay buffer. Free and bound moieties were separated with plasma-coated charcoal.

C57BL/6J mice [3] = experiment: Acute food intake in lean mice, s.c. (Example 10); assay type: in vivo, mouse
Protocol: Female C57BL/6J mice were purchased from Charles Rivers. One week before study initiation the mice were single housed with free access to food and water. […] Thirty minutes prior peptide injection, all mice were administered subcutaneously with DDP-4 inhibitor Valine-pyrrolidide (1.5 mg/mouse). Food intake was measured after 1, 2, 4 and 14 hours (FIG. 14A-D).
Results shown are combined data from five studies with an identical study design as described above. Between each study mice had at least one week washout period.

[4] = tested on: Diet induced obese C57BL/6NTac male mice; experiment: Acute food intake in diet induced obese mice, s.c. (Example 11); assay type: in vivo, mouse; details: 15 nmol/kg s.c.
Protocol: Diet induced obese C57BL/6NTac male mice were purchased from Taconic and continued on a high fat high sucrose diet with free access to water. One week after arrival, animals were double or single housed. […] Thirty minutes prior peptide injection, all mice were administered subcutaneously with DDP-4 inhibitor Valine-pyrrolidide (3 mg/mouse). Food intake was measured after 1, 2, 4 and 14 hours (FIG. 15A-D).

CaCo-2 cells = experiment: Transport study: diffusion of FITCs through tight monolayer of Caco2 cells; assay type: cell-based; details: basal addition of FITCs together with ligand
Protocol: CaCo-2 cells were seeded in transwell chambers (basal) and two times TEER was measured until day 17-21 post seeding. TEER experiments were performed afte 17-21 days post seeding in wells with higher TEER as 1000 ohms (proof of a tight cell monolatyer. Caco2 cells were infected basal with mumps virus (MuV Jerryl Lynn strain, WT or SH-protein deletion virus) at a multiplicity of infection of 3. TEER was measured continuously performing CellZcope experiments.
Transport studies were performed until day 17-21 post seeding as described above for the Cellzcope experiments. Ligand or control induced changes in the tightness of the cell monolayer was measured passively by the basal addition of the fluorescence dye (FITCs) together with the ligands or controls. Increase of FITCs apical was detected by collecting samples after different time points.

human GLP-1 receptor = human GLP-1 receptor (Homo sapiens, UniProt P43220); experiment: cAMP accumulation, human GLP-1 receptor; assay type: cell-based; parameters: expressed in transfected cells; host or cells: COS-7 (methods)
Protocol: as §1, §2

[5] = tested on: choroid plexus of the WT mouse brain; experiment: TAMRA labelled SH-protein binding to cryo-sections, WT mouse brain; details: 1 h incubation
Protocol: (§3) SH protein (SEQ ID NO: 74) with a N-terminal carboxytetramethyl rhodamine attached through its carboxyl-group to the N-terminal alpha amino-group of the first Methionine was used for making the TAMRA labelled SH-protein (SEQ ID NO: 129). A mixture of 5-(and-6)-Carboxytetramethylrhodamine was used.
(§4) A whole body perfusion was performed of mice and brains were dissected and frozen at −80C. Cryo-sections of mouse brains (WT and GPR125 KO mouse (Spina et al. 2021)) were generated and the TAMRA-labelled SH-protein was incubated on the cryosections at different concentrations or buffer. Afterwards the sections were mounted with mounting media containing a DAPI stain.

[6] = tested on: choroid plexus of the GPR125 KO mouse brain; experiment: TAMRA labelled SH-protein binding to cryo-sections, GPR125 KO mouse brain; details: 1 h incubation
Protocol: as §3, §4

[7] = CSF 10 min after i.v. injection

human GLP-1 receptor, sequence (P43220 24-463): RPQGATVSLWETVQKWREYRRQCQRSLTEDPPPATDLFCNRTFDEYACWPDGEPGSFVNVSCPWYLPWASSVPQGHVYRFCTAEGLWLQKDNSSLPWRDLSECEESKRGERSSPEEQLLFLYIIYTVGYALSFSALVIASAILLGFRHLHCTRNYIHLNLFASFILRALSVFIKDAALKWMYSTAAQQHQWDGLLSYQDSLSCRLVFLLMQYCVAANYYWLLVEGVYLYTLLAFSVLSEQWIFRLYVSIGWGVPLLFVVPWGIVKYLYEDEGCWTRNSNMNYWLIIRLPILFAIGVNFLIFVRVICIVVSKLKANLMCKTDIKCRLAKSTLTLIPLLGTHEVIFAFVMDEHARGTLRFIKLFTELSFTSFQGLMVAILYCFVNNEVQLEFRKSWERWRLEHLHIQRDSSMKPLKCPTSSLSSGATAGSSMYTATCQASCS

CC[C@H](C)[C@H](NC(=O)[C@H](C)NC(=O)[C@@H]1CCCN1)C(=O)N[C@@H](CCC(N)=O)C(=O)N1CCC[C@H]1C(=O)N1CCC[C@H]1C(=O)N[C@@H](CC(C)C)C(=O)N[C@@H](Cc1ccc(O)cc1)C(=O)N[C@@H](CC(C)C)C(=O)N[C@H](C(=O)NCCOCCOCC(=O)NCCCC[C@H](NC(=O)[C@H](C)NC(=O)[C@H](C)NC(=O)[C@H](CCC(N)=O)NC(=O)CNC(=O)[C@H](CCC(=O)O)NC(=O)[C@H](CC(C)C)NC(=O)[C@H](Cc1ccc(O)cc1)NC(=O)[C@H](CO)NC(=O)[C@H](CO)NC(=O)[C@@H](NC(=O)[C@H](CC(=O)O)NC(=O)[C@H](CO)NC(=O)[C@@H](NC(=O)[C@H](Cc1ccccc1)NC(=O)[C@@H](NC(=O)CNC(=O)[C@H](CCC(=O)O)NC(=O)[C@H](C)NC(=O)[C@@H](N)Cc1c[nH]cn1)[C@@H](C)O)[C@@H](C)O)C(C)C)C(=O)N[C@@H](CCC(=O)O)C(=O)N[C@@H](Cc1ccccc1)C(=O)N[C@H](C(=O)N[C@@H](C)C(=O)N[C@@H](Cc1c[nH]c2ccccc12)C(=O)N[C@@H](CC(C)C)C(=O)N[C@H](C(=O)N[C@@H](CCCNC(=N)N)C(=O)NCC(=O)N[C@@H](CCCNC(=N)N)C(N)=O)C(C)C)[C@@H](C)CC)[C@@H](C)O [SH(2-11)-GLP-1(7-36)]
EC50 (rat GLP-1 receptor): 0.13 nM | food intake compared to vehicle (C57BL/6J mice [1]; 1 hour after injection): decreases the food intake significantly | food intake compared to vehicle (C57BL/6J mice [1]; 2 hours after injection): decreases the food intake significantly | level at time molar at 10 min ([2]; male, Sprague Dawley, cerebrospinal fluid (CSF), iv, CSF 10 minutes after injection into vena cava, SH(2-11)-GLP-1 500, GLP-1 50 (injection), read-out: CSF conc): 277 µM | detectable in CSF by RIA GLP-1 assay ([2]; 10 min after i.v. injection): detectable | amount detectable within the CSF, of the total injected concentration [2, 7]: approximately 55% | concentrated more in the CSF compared to GLP-1(7-36) [2, 7]: 10 times | Ratio (CSF conc to injection conc) ([2]; CSF 10 minutes after injection): 0.554 | higher presence within the CSF ([2]; compared to GLP-1(7-36)): 10 fold | food intake compared to vehicle (C57BL/6J mice [3]; 15 nmol/kg s.c., after 1 hour): decreased food intake significantly | food intake compared to vehicle (C57BL/6J mice [3]; 15 nmol/kg s.c., after 2 hours): decreased food intake significantly | food intake compared to vehicle (C57BL/6J mice [3]; 15 nmol/kg s.c., after 4 hours): decreased food intake significantly | food intake compared to vehicle (C57BL/6J mice [3]; 30 nmol/kg s.c., after 1 hour): decreased their food intake significantly | food intake compared to vehicle (C57BL/6J mice [3]; 30 nmol/kg s.c., after 2 hours): decreased their food intake significantly | food intake compared to vehicle (C57BL/6J mice [3]; 30 nmol/kg s.c., after 4 hours): still present | food intake compared to vehicle (C57BL/6J mice [3]; 30 nmol/kg s.c., after 14 hours): significant lower food intake | food intake compared to vehicle ([4]; after 1 hour, conjugate also vs GLP-1(7-36)): decreased food intake significantly | food intake compared to vehicle ([4]; after 2 hours, conjugate also vs GLP-1(7-36)): decreased food intake significantly | food intake compared to vehicle ([4]; after 4 hours, conjugate also vs GLP-1(7-36)): decreased food intake significantly | food intake compared to vehicle ([4]; after 14 hours): significantly decreased | integrity of tight monolayer of CaCO-2 cells (uptake of fluorescent dye FITCs) (CaCo-2 cells): decreased integrity | EC50 (human GLP-1 receptor): 0.13 nM

TAMRA labelled SH-protein: SH protein (SEQ ID NO: 74) with N-terminal carboxytetramethyl rhodamine on the alpha amino-group of the first Methionine ({TAMRA}-MPAIQPPLYLTFLLLILLYLIITLYVWIILTVTYKTAVRHAALYQRSFFHWSFDHSL)
concentration at which binding to the choroid plexus is still seen [5]: 2,25 UM | concentrations at which binding to the choroid plexus is seen (only at higher concentrations) [6]: 22 µM and 11 µM

— patent US20240216519A1, “SMALL HYDROPHOBIC PROTEIN DRUG CONJUGATES AND USES THEREOF” (priority 2021, published 2024)
